Literature values in US10822400B2, “Dynamin 2 inhibitor for the treatment of Duchenne's muscular dystrophy” (UNIVERSITE DE STRASBOURG, priority 2015, dated 2020).

Key:
dynamin 2 = molecular target: T1, dynamin 2 (Homo sapiens, UniProt P50570); conditions: read-out: IC50 for inhibition of dynamin 2 (dynamin II)
T1 sequence (P50570 1-870): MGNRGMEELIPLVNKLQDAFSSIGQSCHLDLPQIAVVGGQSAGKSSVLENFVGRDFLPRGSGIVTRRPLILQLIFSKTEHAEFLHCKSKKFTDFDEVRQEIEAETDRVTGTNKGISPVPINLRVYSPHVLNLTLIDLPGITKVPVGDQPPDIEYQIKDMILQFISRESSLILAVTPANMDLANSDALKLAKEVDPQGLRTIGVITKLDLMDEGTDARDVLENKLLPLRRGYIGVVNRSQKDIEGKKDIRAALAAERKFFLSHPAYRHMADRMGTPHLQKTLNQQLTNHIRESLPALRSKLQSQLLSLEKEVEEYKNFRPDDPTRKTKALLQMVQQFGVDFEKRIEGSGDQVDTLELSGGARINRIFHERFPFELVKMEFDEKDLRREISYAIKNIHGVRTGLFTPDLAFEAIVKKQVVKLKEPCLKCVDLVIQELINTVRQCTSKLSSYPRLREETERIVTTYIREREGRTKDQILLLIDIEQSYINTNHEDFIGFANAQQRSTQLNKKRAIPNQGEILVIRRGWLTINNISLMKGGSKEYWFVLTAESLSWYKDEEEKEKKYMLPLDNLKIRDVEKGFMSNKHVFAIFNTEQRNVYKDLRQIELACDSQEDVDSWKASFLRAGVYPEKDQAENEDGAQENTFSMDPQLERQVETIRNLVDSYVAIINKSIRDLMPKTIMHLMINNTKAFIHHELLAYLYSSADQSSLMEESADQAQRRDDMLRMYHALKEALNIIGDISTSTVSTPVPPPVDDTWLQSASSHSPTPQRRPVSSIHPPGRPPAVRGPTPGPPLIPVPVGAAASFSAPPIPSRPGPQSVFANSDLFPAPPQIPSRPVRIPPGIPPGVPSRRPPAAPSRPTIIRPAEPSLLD

mitochondrial division = conditions: read-out: IC50 as mitochondrial division inhibitor
[1] = molecular target: receptor-mediated and synaptic vesicle endocytosis; conditions: read-out: IC50 for inhibition of receptor-mediated and synaptic vesicle endocytosis

SMILES: O=C(NN=Cc1cc(O)c(O)cc1O)c1cc2ccccc2cc1O [Hydroxy-Dynasore, 3-Hydroxy-N′-[(2,4,5-trihydroxyphenyl)methylidene]naphthalene-2-carbohydrazide]
- IC50 (dynamin 2): 2600 nM

SMILES: COc1cc(-n2c(S)nc3ccccc3c2=O)c(Cl)cc1Cl [M-divi 1, 3-(2,4-Dichloro-5-methoxyphenyl)-2-sulfanylquinazolin-4(3H)-one]
- IC50 (mitochondrial division): 10000 nM

SMILES: CCCCCCCCCCCCCC[N+](C)(C)C [MiTMAB, Tetradecyltrimethylammonium bromide]
- IC50 [1]: 2200 nM
